From article PMC4686872 (European journal of medicinal chemistry, 2015)
≈ marks a conversion by molar mass, not a printed value. Where two headings read alike, the source gives them in different places.

Legend:
[1] = tested on: murine macrophage (J774) cell line; test: MTS cytotoxicity assay
MRSA = test: Broth microdilution MIC against MRSA, summarised over the strains tested; type: cell-based, Staphylococcus aureus; conditions: for MIC: Staphylococcus aureus, MRSA, read-out: MIC against MRSA; for antimicrobial activity against MRSA (in words): strains as named in the sentence
[2] = Kinetic solubility screen in PBS; type: physicochemical
Caco-2 bilayer [3] = test: Caco-2 permeability assay
MRSA USA300 = test: Minimum bactericidal concentration
Caco-2 bilayer [4] = tested on: Caco-2 bilayer
in vitro = conditions: human, Caco-2
VRSA (VRS2) = test: Broth microdilution MIC, VRSA VRS2; type: cell-based, Staphylococcus aureus; conditions: vancomycin-resistant S. aureus VRS2
[5] = 128 µM (data not presented), all toxic, exception = not toxic
[6] = 64 µM / up to a concentration of 64 µM

Compound: [C-]#[N+]c1ccccc1/C=C/c1cccc(OC)c1 [Compound 15]
- toxicity to J774 cells [1, 5]: exception

Compound: [C-]#[N+]c1ccccc1/C=C/c1ccc([N+](=O)[O-])cc1 [Compound 25]
- toxicity to J774 cells ([1]; 32 µM, all not toxic, exception = toxic): exception
- toxicity to J774 cells [1, 6]: toxic

Compound: [C-]#[N+]c1ccccc1/C=C/c1ccccc1 [Compound 13]
- MIC (MRSA): ≥ 2 µM
- reduction in the MIC against MRSA (MRSA; relative to compound 1 (removal of the ethyl group)): two-to-eight fold
- Solubility Analysis [2]: Low solubility
- toxicity to J774 cells [1, 6]: neither compound was toxic
- Permeability Analysis (Caco-2 bilayer [3]): Not permeable

Compound: [C-]#[N+]c1ccccc1/C=C(\CC)c1ccccc1 [Compound 1]
- MIC (MRSA): 8 to 64 µM (≈ 1.87 to 14.9 µg/mL)
- bacteriostatic or bactericidal (MRSA USA300): bacteriostatic

Compound: [C-]#[N+]c1ccccc1/C=C/c1cccc(F)c1 [Compound 19]
- toxicity to J774 cells [1, 6]: toxic

Compound: CC/C(=C\c1ccccc1)c1ccccc1 [Compound 42]
- antimicrobial activity against MRSA (in words) (MRSA): complete loss in the anti-MRSA activity

Compound: [C-]#[N+]c1ccc(/C=C/c2ccccc2)cc1 [Compound 37]
- toxicity to J774 cells [1, 5]: exception

Compound: [C-]#[N+]c1ccccc1/C=C(\CC)c1cccc(C(F)(F)F)c1 [Compound 12]
- toxicity to J774 cells [1, 6]: toxic

Compound: [C-]#[N+]c1ccc(C)cc1-c1ccc(C(C)(C)C)cc1 [Compound 49]
- antimicrobial activity against MRSA (in words) (MRSA): loss in antimicrobial activity

Compound: [C-]#[N+]c1ccccc1/C=C/c1ccc(CCCC)cc1 [Compound 24]
- antimicrobial activity against MRSA (in words) (MRSA): lacked activity against most MRSA strains tested

Compound: [C-]#[N+]c1ccccc1/C=C/c1cccnc1 [Compound 30]
- antimicrobial activity against MRSA (in words) (MRSA): reduced antimicrobial activities
- toxicity to J774 cells [1, 5]: exception

Compound: CNC(=C[N+](=O)[O-])NCCSCc1ccc(CN(C)C)o1 [Ranitidine]
- Permeability Analysis (Caco-2 bilayer [4]): Low permeability
- Papp A→B (in vitro): 0.23 ×10⁻⁶ cm/s

Compound: [C-]#[N+]c1ccccc1C=C1CCCCC1 [Compound 26]
- antimicrobial activity against MRSA (in words) (MRSA): inactive against several MRSA isolates

Compound: [C-]#[N+]c1ccccc1/C=C/c1ccncc1 [Compound 33]
- antimicrobial activity against MRSA (in words) (MRSA): reduced antimicrobial activities

Compound: [C-]#[N+]c1ccc(C)cc1-c1ccc(C(F)(F)F)cc1 [Compound 50]
- antimicrobial activity against MRSA (in words) (MRSA): loss in antimicrobial activity

Compound: [C-]#[N+]c1ccccc1CCc1ccccc1 [Compound 53]
- antimicrobial activity against MRSA (in words) (MRSA): active against several strains

Compound: [C-]#[N+]c1ccccc1/C=C/c1ccccn1 [Compound 27]
- antimicrobial activity against MRSA (in words) (MRSA): reduced antimicrobial activities

Compound: [C-]#[N+]c1ccccc1/C=C(\CC)c1ccc(OC)cc1 [Compound 11]
- toxicity to J774 cells [1, 6]: toxic

Compound: COC(=O)[C@H]1[C@H]2C[C@@H]3c4[nH]c5cc(OC)ccc5c4CCN3C[C@H]2C[C@@H](OC(=O)c2cc(OC)c(OC)c(OC)c2)[C@@H]1OC [Reserpine, reference compound]
- Solubility Analysis [2]: Low solubility

Compound: [C-]#[N+]c1ccccc1/C=C/c1ccc(C)cc1 [Compound 23]
- MIC (MRSA): 4 to 64 µM (≈ 0.877 to 14 µg/mL)
- antimicrobial activity against MRSA (in words) (MRSA): active against all MRSA strains tested

Compound: [C-]#[N+]c1ccccc1CP(=O)(OCC)OCC [Compound 4a]
- Minimum inhibitory concentration (MIC), VRSA2 VRS 2 (VRSA (VRS2)): >128 µM
- antimicrobial activity against MRSA (in words) (MRSA): complete loss of activity

Compound: N#Cc1ccccc1/C=C/c1ccccc1 [Compound 43]
- antimicrobial activity against MRSA (in words) (MRSA): complete loss of antimicrobial activity

Compound: [C-]#[N+]c1ccccc1-c1ccccc1 [Compound 46]
- antimicrobial activity against MRSA (in words) (MRSA): lacks activity against three strains of MRSA
